The record followed here is US20070167353A1, “PRODRUG COMPOSITION” (priority 2003, published 2007).

Where two headings read alike, the source gives them in different places.

In data set [1] the target is T1, biphenyl hydrolase-like enzyme (BPHL) (Homo sapiens, UniProt Q86WA6).
T1 sequence (Q86WA6 38-291): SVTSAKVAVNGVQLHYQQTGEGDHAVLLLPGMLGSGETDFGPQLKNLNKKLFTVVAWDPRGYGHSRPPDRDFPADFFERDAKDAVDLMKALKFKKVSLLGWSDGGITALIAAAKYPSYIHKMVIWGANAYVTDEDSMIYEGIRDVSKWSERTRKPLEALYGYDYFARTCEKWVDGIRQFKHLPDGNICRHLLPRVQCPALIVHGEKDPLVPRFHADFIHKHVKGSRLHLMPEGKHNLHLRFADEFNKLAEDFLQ
Type of data set: biochemical.

Data set [2] concerns the target T2, HPEPT1 (Homo sapiens, UniProt P46059).
T2 sequence (P46059 1-708): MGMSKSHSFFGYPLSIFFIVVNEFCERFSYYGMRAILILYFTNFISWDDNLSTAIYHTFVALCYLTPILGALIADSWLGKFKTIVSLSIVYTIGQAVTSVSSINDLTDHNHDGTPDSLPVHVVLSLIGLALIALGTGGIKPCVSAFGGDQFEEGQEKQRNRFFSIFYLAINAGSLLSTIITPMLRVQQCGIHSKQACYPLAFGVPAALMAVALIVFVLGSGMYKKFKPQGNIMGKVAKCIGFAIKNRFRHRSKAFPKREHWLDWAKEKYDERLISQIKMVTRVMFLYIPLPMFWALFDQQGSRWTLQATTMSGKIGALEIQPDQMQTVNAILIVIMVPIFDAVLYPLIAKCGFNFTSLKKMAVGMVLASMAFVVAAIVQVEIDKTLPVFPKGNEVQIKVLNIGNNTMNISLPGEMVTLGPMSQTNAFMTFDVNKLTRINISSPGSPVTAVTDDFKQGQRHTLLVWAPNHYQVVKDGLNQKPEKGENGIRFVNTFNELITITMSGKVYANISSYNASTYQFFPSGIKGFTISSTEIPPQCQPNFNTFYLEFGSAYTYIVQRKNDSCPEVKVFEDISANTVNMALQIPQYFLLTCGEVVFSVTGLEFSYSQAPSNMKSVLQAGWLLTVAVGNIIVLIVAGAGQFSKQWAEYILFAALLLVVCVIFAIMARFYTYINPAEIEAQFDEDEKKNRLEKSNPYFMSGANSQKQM
Description: Inhibition of radiolabelled Gly-Sar uptake in DC5 cells overexpressing HPEPT1. Details: expressed in transfected cells; host or cells: HeLa cells overexpressing hPEPT1 (called 'HPEPT1 infected cells'). It is filed as cell-based. The procedure:
Amino acid prodrugs are tested for their interaction with the dipeptide transporter, HPEPT1, using tissue culture cells that are engineered to overexpress HPEPT1. In this example, the cells that overexpress HPEPT1, termed DC5, are a human meduloblastoma cell line that is stably transfected with a eukaryotic expression vector encoding HPEPT1. […] DC5 cells are plated at a density of 12,000 cells/well in 96-well tissue culture plates and allowed to grow for 2 days. The cells are washed once with 200 microliters of uptake buffer and aspirated. The plates are cooled to 4° C. and 25 ul of uptake buffer containing 125 nanomoles Gly-Sar (at a specific activity of 1 microcurie/micromole) is added. The uptake buffer also contains the prodrugs to be tested at concentrations ranging from 10 micromolar to 20 millimolar. The assay is initiated by placing the plate in a shaking water bath at 37° C. and is terminated after 10 min by rapid washing with multiple changes of 4° C. phosphate buffered saline (PBS). The radioactive Gly-Sar peptide that is transported by the hpept1 is extracted from the cell layer with 200 ul of a one to one mixture of methanol and water and is counted in 4 ml of CytoScint ES™ scintillation cocktail (ICN). The data are plotted as % Gly-Sar uptake of control (no competitive substrate) versus the competitive substrate concentration. […] Typically, values that are below 10 mM indicate that the drug interacts with transporter.

For data set [3], the system named is HeLa cells. The settings on record: 1 mM prodrug, pH 6.0, 45 minutes.
In data set [4] the test system is HeLa cells. The settings on record: control cultures not overexpressing hpept1, 50 micromolar, pH 6.0, 45 minutes.
Data set [5] in a line: Hydrolysis of gemcitabine prodrugs in phosphate buffer pH 7.4.
Data set [6] addresses T2, HPEPT1. The following applies: human, pH 6.
The target of data set [7] is T3, human dipeptide transporter, hPept1 (Homo sapiens, UniProt P46059).
T3 sequence (P46059 1-708): T2 sequence (P46059 1-708)
The following applies: human, pH 6.

Data set [8] can be described thus: in vitro. The following applies: human, Caco-2.
The nature of data set [9]: physchem. The following applies: buffer, pH 7.4.
A short description of data set [10]: in vitro. The settings on record: human, plasma.
The nature of data set [11]: in vitro. The following applies: human, Caco-2, pH 7.4.
Data set [12] can be described thus: physchem. The settings on record: buffer, pH 7.4. The source holds these as a separate data set.

What is called IC50 is the concentration at which inhibition is half-maximal. Broadly, the half-life is the time in which the quantity being followed falls by half. In the case of `CC(C)[C@H](N)C(=O)OCCOCn1cnc2c(=O)[nH]c(N)nc21` [Valacyclovir], the “% of Control (VACV)” value in data set [1] is given as 100.0%. Besides, the half-maximal inhibitory concentration (IC50) on HPEPT1 [2] was determined as 423 µM. The HeLa control uptake with HeLa cells [3] is 11.6 ± 0.5 nmol/mg/45 min. Also, the “Uptake Control” value with HeLa cells [4] is given as 0.59 ± 0.06 nmole/mg/45 min. In addition, the half-life in [5] came to 17.1 ± 0.19 h; in “in vitro [8]” it was 0.545 ± 0.0117 h; in “physchem [9]”, 16.5 ± 0.24 h; in “in vitro [10]”, 5.2 ± 0.41 h; in the data set “in vitro [11]”, 0.462 ± 0.01 h. The “Uptake (hPepT1)” value on HPEPT1 [6] was 2.51 ± 0.28 nmole/mg/45 min. The hPepT1/Control stood at 4.25 at HPEPT1 [6] and 19.0 in data set [7]. Moreover, the HeLa/hPEPT1 uptake in [7] amounted to 221.2 ± 8.1.
Turning to `CC(C)[C@H](N)C(=O)OCC(CO)OCn1cnc2c(=O)nc(N)[nH]c21` (some centres unmarked) [Valganciclovir], on HPEPT1 [2] (inhibition of Gly-Sar uptake, DC5 cells overexpressing HPEPT1, 10 min, 37° C., read-out: DC5 IC50), the concentration for half-maximal inhibition (IC50) was determined as 5230 µM. Also, the half-life is 5.05 ± 0.3 h in the data set “in vitro [10]”, 16.5 ± 0.24 h in “physchem [12]” and 0.545 ± 0.0117 h in “in vitro [11]”.
